Results on 27 compounds are retold here after the NIST ThermoML archive (doi:10.1016/j.fluid.2014.11.020).

The series is described as follows: activity coefficient (dimensionless); of the first substance listed, at infinite dilution; xn = mol fraction of the nth substance listed. As to conditions: Liquid, Chromatography, x1 = 0.

± gives the expanded uncertainty stated by the source.

`CCCC(C)=O` [pentan-2-one] + Cn1cc[n+](COCCCOC[n+]2ccn(C)c2)c1.N#C[N-]C#N.N#C[N-]C#N: the activity coefficient runs as follows: (323.15 K) 3.5 ± 0.24; (333.15 K) 3.5 ± 0.24; (343.15 K) 3.49 ± 0.24.

As for `CCCC(C)=O` [pentan-2-one] + Cn1cc[n+](COCCCOC[n+]2ccn(C)c2)c1.O=S(=O)([N-]S(=O)(=O)C(F)(F)F)C(F)(F)F.O=S(=O)([N-]S(=O)(=O)C(F)(F)F)C(F)(F)F, the activity coefficient reads like this: (323.15 K) 0.62 ± 0.04; (333.15 K) 0.65 ± 0.04; (343.15 K) 0.63 ± 0.04.

Turning to `CCCC(C)=O` [pentan-2-one] + N#C[N-]C#N.N#C[N-]C#N.c1ccc(Cn2cc[n+](COCCCOC[n+]3ccn(Cc4ccccc4)c3)c2)cc1, the activity coefficient by setting is: (323.15 K) 3.1 ± 0.21; (333.15 K) 3.05 ± 0.21; (343.15 K) 3.08 ± 0.21.

In the case of `CCC(=O)CC` [pentan-3-one] + CCCCCCCCn1cc[n+](COCCC)c1C.N#C[N-]C#N, the activity coefficient worked out at 0.88 ± 0.06 (323.15 K), 0.89 ± 0.06 (333.15 K) and 0.91 ± 0.06 (343.15 K).

As for `CCC(=O)CC` [pentan-3-one] + CCCCCCCCn1cc[n+](COCCC)c1C.O=S(=O)([N-]S(=O)(=O)C(F)(F)F)C(F)(F)F, the activity coefficient came out at 0.45 ± 0.04 (323.15 K), 0.45 ± 0.04 (333.15 K) and 0.47 ± 0.04 (343.15 K).

Regarding `CCC(=O)CC` [pentan-3-one] + CCCCCCCCn1cc[n+](COCCCOC[n+]2ccn(CCCCCCCC)c2C)c1C.N#C[N-]C#N.N#C[N-]C#N, the activity coefficient was determined as 0.75 ± 0.05 (323.15 K), 0.76 ± 0.05 (333.15 K) and 0.78 ± 0.05 (343.15 K).

For `CCC(=O)CC` [pentan-3-one] + CCCCCCCCn1cc[n+](COCCCOC[n+]2ccn(CCCCCCCC)c2C)c1C.O=S(=O)([N-]S(=O)(=O)C(F)(F)F)C(F)(F)F.O=S(=O)([N-]S(=O)(=O)C(F)(F)F)C(F)(F)F, the activity coefficient is, setting by setting: (323.15 K) 0.28 ± 0.03; (333.15 K) 0.28 ± 0.03; (343.15 K) 0.29 ± 0.03.

As for `CCC(=O)CC` [pentan-3-one] + CCCOC[n+]1ccc(N(C)C)cc1.O=S(=O)([N-]S(=O)(=O)C(F)(F)F)C(F)(F)F, the activity coefficient (323.15 K) came to 0.72 ± 0.05, the activity coefficient (333.15 K) amounted to 0.75 ± 0.05 and the activity coefficient (343.15 K) was 0.76 ± 0.05.

For `CCC(=O)CC` [pentan-3-one] + CCCOC[n+]1ccn(C)c1.F[B-](F)(F)F, the activity coefficient runs as follows: (323.15 K) 3.34 ± 0.23; (333.15 K) 3.36 ± 0.23; (343.15 K) 3.41 ± 0.23.

`CCC(=O)CC` [pentan-3-one] + CCCOC[n+]1ccn(C)c1.N#C[N-]C#N: the activity coefficient by setting is: (323.15 K) 2.14 ± 0.15; (333.15 K) 2.19 ± 0.15; (343.15 K) 2.29 ± 0.16.

Take `CCC(=O)CC` [pentan-3-one] + CCCOC[n+]1ccn(C)c1.O=S(=O)([N-]S(=O)(=O)C(F)(F)F)C(F)(F)F: the activity coefficient (323.15 K) turned out to be 0.68 ± 0.05, the activity coefficient (333.15 K) turned out to be 0.69 ± 0.05 and the activity coefficient (343.15 K) was found to be 0.72 ± 0.05.

With `CCC(=O)CC` [pentan-3-one] + CCCOC[n+]1ccn(Cc2ccccc2)c1.F[B-](F)(F)F, the activity coefficient runs as follows: (323.15 K) 1.73 ± 0.12; (333.15 K) 1.74 ± 0.12; (343.15 K) 1.75 ± 0.12.

Take `CCC(=O)CC` [pentan-3-one] + CCCOC[n+]1ccn(Cc2ccccc2)c1.N#C[N-]C#N: the activity coefficient (323.15 K) worked out at 1.33 ± 0.09, the activity coefficient (333.15 K) came out at 1.4 ± 0.09 and the activity coefficient (343.15 K) stood at 1.43 ± 0.09.

For the compound `CCC(=O)CC` [pentan-3-one] + CCCOC[n+]1ccn(Cc2ccccc2)c1.O=S(=O)([N-]S(=O)(=O)C(F)(F)F)C(F)(F)F, the activity coefficient runs as follows: (323.15 K) 0.43 ± 0.04; (333.15 K) 0.43 ± 0.04; (343.15 K) 0.44 ± 0.04.

`CCC(=O)CC` [pentan-3-one] + CN(C)c1cc[n+](COCCCOC[n+]2ccc(N(C)C)cc2)cc1.O=S(=O)([N-]S(=O)(=O)C(F)(F)F)C(F)(F)F.O=S(=O)([N-]S(=O)(=O)C(F)(F)F)C(F)(F)F: the activity coefficient (323.15 K) was 0.67 ± 0.05, the activity coefficient (333.15 K) turned out to be 0.69 ± 0.05 and the activity coefficient (343.15 K) amounted to 0.7 ± 0.05.

Take `CCC(=O)CC` [pentan-3-one] + Cn1cc[n+](COCCCOC[n+]2ccn(C)c2)c1.N#C[N-]C#N.N#C[N-]C#N: the activity coefficient amounted to 3.39 ± 0.23 (323.15 K), 3.49 ± 0.24 (333.15 K) and 3.46 ± 0.24 (343.15 K).

In the case of `CCC(=O)CC` [pentan-3-one] + Cn1cc[n+](COCCCOC[n+]2ccn(C)c2)c1.O=S(=O)([N-]S(=O)(=O)C(F)(F)F)C(F)(F)F.O=S(=O)([N-]S(=O)(=O)C(F)(F)F)C(F)(F)F, the activity coefficient was found to be 0.6 ± 0.04 (323.15 K), 0.63 ± 0.04 (333.15 K) and 0.63 ± 0.04 (343.15 K).

`CCC(=O)CC` [pentan-3-one] + N#C[N-]C#N.N#C[N-]C#N.c1ccc(Cn2cc[n+](COCCCOC[n+]3ccn(Cc4ccccc4)c3)c2)cc1: the activity coefficient is, setting by setting: (323.15 K) 2.88 ± 0.2; (333.15 K) 2.89 ± 0.2; (343.15 K) 2.91 ± 0.2.

As for `CCCO` [propan-1-ol] + CCCCCCCCn1cc[n+](COCCC)c1C.N#C[N-]C#N, the activity coefficient (323.15 K) was 0.4 ± 0.03, the activity coefficient (333.15 K) was determined as 0.4 ± 0.03 and the activity coefficient (343.15 K) was found to be 0.39 ± 0.03.

`CCCO` [propan-1-ol] + CCCCCCCCn1cc[n+](COCCC)c1C.O=S(=O)([N-]S(=O)(=O)C(F)(F)F)C(F)(F)F: the activity coefficient (323.15 K) was 1.16 ± 0.07, the activity coefficient (333.15 K) came to 1.06 ± 0.07 and the activity coefficient (343.15 K) was 0.98 ± 0.06.

For the compound `CCCO` [propan-1-ol] + CCCCCCCCn1cc[n+](COCCCOC[n+]2ccn(CCCCCCCC)c2C)c1C.N#C[N-]C#N.N#C[N-]C#N, the activity coefficient (323.15 K) was determined as 0.32 ± 0.03, the activity coefficient (333.15 K) came to 0.32 ± 0.03 and the activity coefficient (343.15 K) came to 0.31 ± 0.03.

For the compound `CCCO` [propan-1-ol] + CCCCCCCCn1cc[n+](COCCCOC[n+]2ccn(CCCCCCCC)c2C)c1C.O=S(=O)([N-]S(=O)(=O)C(F)(F)F)C(F)(F)F.O=S(=O)([N-]S(=O)(=O)C(F)(F)F)C(F)(F)F, the activity coefficient by setting is: (323.15 K) 0.72 ± 0.05; (333.15 K) 0.65 ± 0.04; (343.15 K) 0.77 ± 0.05.

In the case of `CCCO` [propan-1-ol] + CCCOC[n+]1ccc(N(C)C)cc1.O=S(=O)([N-]S(=O)(=O)C(F)(F)F)C(F)(F)F, the activity coefficient reads like this: (323.15 K) 1.93 ± 0.13; (333.15 K) 1.72 ± 0.12; (343.15 K) 1.53 ± 0.1.

Regarding `CCCO` [propan-1-ol] + CCCOC[n+]1ccn(C)c1.F[B-](F)(F)F, the activity coefficient (323.15 K) turned out to be 3.1 ± 0.21, the activity coefficient (333.15 K) is 2.79 ± 0.19 and the activity coefficient (343.15 K) was found to be 2.53 ± 0.17.

As to `CCCO` [propan-1-ol] + CCCOC[n+]1ccn(C)c1.N#C[N-]C#N, the activity coefficient is, setting by setting: (323.15 K) 0.97 ± 0.06; (333.15 K) 0.95 ± 0.06; (343.15 K) 0.92 ± 0.06.

For `CCCO` [propan-1-ol] + CCCOC[n+]1ccn(C)c1.O=S(=O)([N-]S(=O)(=O)C(F)(F)F)C(F)(F)F, the activity coefficient (323.15 K) was determined as 1.86 ± 0.13, the activity coefficient (333.15 K) was found to be 1.66 ± 0.11 and the activity coefficient (343.15 K) turned out to be 1.5 ± 0.1.

For `CCCO` [propan-1-ol] + CCCOC[n+]1ccn(Cc2ccccc2)c1.F[B-](F)(F)F, the activity coefficient runs as follows: (323.15 K) 2.15 ± 0.15; (333.15 K) 1.92 ± 0.13; (343.15 K) 1.78 ± 0.12.
